Laboratory results reported in PubChem BioAssay AID504539 (Broad Institute, 2011).
Active and inactive are the calls of the source. The rule behind the calls is not given here.

Tested on: not listed separately
Test: prion protein 5' UTR mRNA inhibitors – cell-based, plate reader, cherry-picked samples, dose response (AID 504539)
Conditions: Cell-based prion protein 5' UTR reporter, plate reader; at 5 µM (top of the series)

Compound | activity change, negative = inhibition
CCOc1ccc(C2=Nn3c(nnc3-c3ccccc3OC)SC2)cc1 | -38.1% (inactive)
O=C(NN1C(=O)C2C3C=CC(C4CC34)C2C1=O)c1ccc(Br)cc1 (stereo not given) | 108% (inactive)
N#Cc1cn(C2OC(CO)C(O)C2O)c2ncnc(N)c12 (stereo not given) | -30.1% (inactive)
CCc1ccc(/C=C2\SC(=S)N(CCCC(=O)Nc3ccccn3)C2=O)cc1 | -23.5% (inactive)
COc1ccc(Nc2nc(-c3c(C)nc4ncccn34)cs2)cc1 | -31.6% (inactive)
Cc1ccc(S(=O)(=O)Nc2nc3ccccc3s2)cc1[N+](=O)[O-] | 25.2% (inactive)
O=C(NNC(=O)c1cccs1)c1ccco1 | 6.33% (inactive)
Cn1nnc2cc(C(=O)NC3CCCCC3)ccc21 | 46.3% (inactive)

Tested on: Cell-based prion protein 5' UTR reporter, plate reader
Test: as above
Conditions: not given

Compound | AC50 [nM]
COc1cccc(/C=N/Nc2ccc(C(=O)O)cc2)c1O | 222
Cc1nn(-c2ccccc2Cl)c(Cl)c1/C=N/Nc1cccc(C(=O)O)c1 | 576
C[C@]12CC[C@H](O)C[C@H]1CC[C@@H]1[C@@H]2C[C@@H](O)[C@]2(C)[C@@H](C3=CC(=O)OC3)CC[C@]12O | 374
C(=NN1CCCCCC1)c1ccc2ccccc2n1 | < 38
O=C(/C=C/c1ccccc1)Nc1cccc(C(=O)O)c1 | 392
CC(=O)c1ccc(Oc2cc(C)nc(-n3nc(C)cc3C)n2)cc1 | 1250
O=c1cc(-c2ccc(O)cc2)oc2ccc3ccccc3c12 | 629
